Test: Removal of tar from tobacco smoke measured colorimetrically
Settings: 250 mg portions of compound as filter; smoke from one cigarette drawn through 3 ml water; read at 405 nm; compared with control cigarette
Protocol: The smoke from one cigarette was drawn through the filter material and then through 3 mls of distilled water using a water-pipe smoking device which was constructed from a 25 ml glass Erlenmeyer flask attached to a vacuum source with an air flow rate of approximately 35 ml/min. Three 100 microliter aliquots were removed from each flask, placed into ELISA plate wells and read in an ELISA plate reader at 405 nm. The percentage or tar removed is based on a comparison between the cigarette comprising the filter containing the test agent and an appropriate control cigarette.
The smoke from 1 of each type of filter cigarette was then drawn through 3 mls of distilled water using a water-pipe smoking device which was constructed from a small (25 ml) glass Erlenmeyer flask attached to a vacuum source with an air flow rate of approximately 35 ml/min. Three 100 microliter aliquots were removed from each flask, placed into ELISA plated wells and read in an ELISA plate reader at 405 nm.

Row | SMILES | % TAR REMOVAL [%]
1 | C[C@H](NC(=O)OC(C)(C)C)C(=O)ON1C(=O)CCC1=O [N-α-t-BOC-L-alanine-N-hydroxysuccinimide ester] | 25
2 | O=CC(=O)c1ccccc1 [Phenylglyoxal] | 53
3 | CC(C)(C)OC(=O)N[C@@H](CCC(=O)ON1C(=O)CCC1=O)C(=O)OCc1ccccc1 [N-α-t-BOC-L-glutamic-α-benzyl ester-γ-N-hydroxysuccinimide ester] | 96.7
4 | CC1(C)CC(=O)CC(=O)C1 [(5,5-dimethyl-1,3-cyclohexanedione, 5,5-dimethyl-1,3-cyclohexanedione] | 26
5 | O=C1c2ccccc2C(=O)C1(O)O [Ninhydrin] | 83
6 | O=Cc1ccccc1C=O [O-phthaldialdehyde] | 84
7 | O=C1CN(CCN2CC(=O)OC(=O)C2)CC(=O)O1 [Ethylenediaminetetraacetic dianhydride] | 98.2
8 | CC(=O)O[C@H]1C(=O)OC(=O)[C@@H]1OC(C)=O [(+)-Diacetyl-1-tartaric anhydride] | 32.1
9 | O=C1OC(=O)C2C3C=CC(C12)C1C(=O)OC(=O)C31 (stereo not drawn) [Bicyclo(2,2,2)oct-7-ene-2,3,5,6-tetracarboxylic dianhydride] | 98.2
10 | O=C1c2ccccc2C(=O)C1(O)C1(O)C(=O)c2ccccc2C1=O [Hydrindantin] | 95
11 | CC(C)(C)OC(=O)NCCCCCC(=O)ON1C(=O)CCC1=O [BOC-ε-aminocaproic acid-N-hydroxysuccinimide ester] | 74
12 | CCCCCCCCCC=CCC1CC(=O)OC1=O (stereo not drawn) [2-Dodecen-1-ylsuccinic anhydride] | 98.2
